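Method: 48-hour compound exposure of cells in 96-well plates, five concentrations, linear interpolation of endpoints. GI50 is the concentration that inhibits growth by half.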 The source made the active and inactive calls. Rule as the data show it: active = GI50 up to about 1.1 µM and inactive = higher.
Legend:
Assay in all cases: NCI anticancer screen, dose series, 48 h
DLD-1 = system: DLD-1
DMS-114 = system: DMS-114
DMS-273 = system: DMS-273
HOP-18 = system: HOP-18
KM-20L2 = system: KM-20L2
LXFL 529 = system: LXFL 529
RXF 631 = system: RXF 631
SNB-78 = system: SNB-78
XF498 = system: XF498

Measured: GI50

O=C1O[B-](c2ccccc2)(c2ccccc2)[NH2+]C1CS (stereo not given)
inactive: DLD-1 33 µM | DMS-114 34.9 µM | DMS-273 34.9 µM | HOP-18 > 100 µM | KM-20L2 64.7 µM | LXFL 529 39.9 µM | RXF 631 50.8 µM | SNB-78 65.9 µM | XF498 > 100 µM

Cc1c(/C=N/NC(=O)c2cc(Br)cc(Br)c2O)c(=O)n(-c2ccccc2)n1C
inactive: DLD-1 67.1 µM | DMS-114 38.5 µM | DMS-273 5.25 µM | KM-20L2 58.3 µM | LXFL 529 75.9 µM | SNB-78 > 100 µM | XF498 17.6 µM

Cc1c(C(=O)CSc2nc3cc([N+](=O)[O-])ccc3[nH]2)c(=O)n(-c2ccccc2)n1C
inactive: DLD-1 > 100 µM | DMS-114 > 100 µM | DMS-273 > 100 µM | LXFL 529 > 100 µM | XF498 > 100 µM

Cc1cc2c(=O)c3ccc(Cl)cc3[nH]c2c(C(N)=O)c1C
inactive: DLD-1 > 100 µM | DMS-114 > 100 µM | DMS-273 > 100 µM | KM-20L2 > 100 µM | LXFL 529 > 100 µM | RXF 631 > 100 µM | SNB-78 > 100 µM | XF498 > 100 µM

O=C1CC2(C[C@@H]3CCCCCCCCC[C@@H](C3)C2)N1 (stereo not given in full)
inactive: DMS-114 16.7 µM | DMS-273 12.3 µM | HOP-18 10.5 µM | KM-20L2 15.6 µM | LXFL 529 15.7 µM | SNB-78 23.4 µM | XF498 12.2 µM

CNS(=O)(=O)NN(C)S(=O)(=O)c1ccc(Br)cc1
inactive: DLD-1 > 10 µM | DMS-114 > 100 µM | DMS-273 > 100 µM | KM-20L2 > 100 µM | LXFL 529 > 100 µM | RXF 631 > 100 µM | XF498 > 100 µM

CCOc1ccc(/C=C/C(=O)c2sc(NNC(C)=O)nc2C)cc1
inactive: DLD-1 > 100 µM | DMS-114 > 100 µM | DMS-273 > 100 µM | HOP-18 > 100 µM | KM-20L2 > 100 µM | SNB-78 > 100 µM

NC(CCSC(F)F)C(=O)O (stereo not given)
inactive: DLD-1 > 100 µM | DMS-114 65.3 µM | DMS-273 > 100 µM | KM-20L2 > 100 µM | LXFL 529 > 100 µM | SNB-78 > 100 µM | XF498 > 100 µM

COC(=O)c1c(-c2ccccc2)sc(-c2cccc3ccccc23)c1C(=O)OC
inactive: DLD-1 18 µM | DMS-273 > 100 µM | HOP-18 > 100 µM | KM-20L2 > 100 µM | LXFL 529 > 100 µM | SNB-78 > 100 µM

CC1OC(OC2CCCc3c(O)c4c(c(O)c32)C(=O)c2ccccc2C4=O)CC(N)C1O (stereo not given)
inactive: DLD-1 1.33 µM | DMS-114 1.69 µM | KM-20L2 2.01 µM | LXFL 529 1.55 µM | RXF 631 1.5 µM | SNB-78 1.89 µM | XF498 1.93 µM

NC(CCc1ncc(-c2ccccc2)s1)C(=O)O (stereo not given)
inactive: DLD-1 > 100 µM | DMS-114 > 100 µM | DMS-273 > 100 µM | HOP-18 > 100 µM | LXFL 529 > 100 µM | RXF 631 > 100 µM | SNB-78 > 100 µM

COc1nc2nccc-2c2occn12
inactive: DLD-1 > 100 µM | DMS-114 > 100 µM | DMS-273 > 100 µM | HOP-18 > 100 µM | KM-20L2 > 100 µM | LXFL 529 > 100 µM | RXF 631 > 100 µM | SNB-78 > 100 µM | XF498 > 100 µM

COC1=CC(=O)C2C(C1=O)[C@@H]1c3ccccc3OC(C)(C)[C@H]21 (stereo not given in full)
inactive: DLD-1 19.2 µM | DMS-114 20.7 µM | DMS-273 22.9 µM | KM-20L2 27.1 µM | LXFL 529 18.7 µM | SNB-78 18.8 µM | XF498 18.1 µM

CCOC(=O)C1=C(O)C(=O)c2cc(C)ccc2C1=O
inactive: DLD-1 > 100 µM | DMS-114 > 100 µM | DMS-273 > 100 µM | HOP-18 45.5 µM | KM-20L2 > 100 µM | SNB-78 > 100 µM | XF498 > 100 µM

COc1cc2c(cc1OC)C(=O)C(C1=C(SC(=N)N)C(=O)c3cc(OC)c(OC)cc31)C2 (stereo not given)
inactive: DLD-1 > 100 µM | DMS-114 > 100 µM | DMS-273 > 100 µM | KM-20L2 > 100 µM | LXFL 529 > 100 µM | SNB-78 > 100 µM | XF498 > 100 µM

COc1cc(NCC(C#N)C#N)ccc1/N=N/c1ccc([N+](=O)[O-])cc1
inactive: DLD-1 > 100 µM | DMS-114 65.2 µM | DMS-273 > 100 µM | HOP-18 > 100 µM | KM-20L2 > 100 µM | LXFL 529 37.6 µM | RXF 631 > 100 µM | SNB-78 > 100 µM

COC(=O)/C(C#N)=C(\N)C(Cl)(Cl)Cl
inactive: DLD-1 1.17 µM | DMS-114 3.73 µM | DMS-273 3.45 µM | KM-20L2 29.7 µM | LXFL 529 2.7 µM | RXF 631 2.78 µM | SNB-78 6.18 µM | XF498 1.78 µM

NC(=O)C(=Cc1ccc(CP(=O)(O)O)cc1)C(N)=O
inactive: DLD-1 > 100 µM | DMS-114 > 100 µM | DMS-273 > 100 µM | HOP-18 > 100 µM | KM-20L2 > 100 µM | LXFL 529 > 100 µM | SNB-78 > 100 µM | XF498 > 100 µM

COc1ccc2cc3[n+](cc2c1O)CCc1cc2c(cc1-3)OCO2 [BERBERRUBINE CHLORIDE]
inactive: DLD-1 > 100 µM | HOP-18 > 100 µM | KM-20L2 > 100 µM | LXFL 529 > 10 µM | SNB-78 > 100 µM | XF498 > 100 µM

CCCOP1(=O)C=CC(Cl)=C(C)C1 (stereo not given)
inactive: DLD-1 20.6 µM | DMS-114 25.4 µM | HOP-18 50.4 µM | KM-20L2 48.1 µM | LXFL 529 23.7 µM | SNB-78 53.1 µM | XF498 23.6 µM

O=C(CC1C(=O)Nc2ccccc2S1(=O)=O)Nc1cccc(Cl)c1 (stereo not given)
inactive: DLD-1 17.5 µM | DMS-114 16.1 µM | DMS-273 14.5 µM | KM-20L2 21.1 µM | LXFL 529 17.2 µM | RXF 631 19.9 µM | SNB-78 59.7 µM | XF498 21.3 µM

CCOP(=O)(OCC)/C(C#N)=C\c1ccc(OC(C)=O)cc1
inactive: DLD-1 > 100 µM | DMS-114 > 100 µM | HOP-18 > 100 µM | KM-20L2 > 100 µM | LXFL 529 > 100 µM | SNB-78 > 100 µM | XF498 > 100 µM

CCC1NCC(=O)c2c1[nH]c1ccccc21 (stereo not given)
inactive: DLD-1 > 100 µM | DMS-114 > 100 µM | DMS-273 > 100 µM | HOP-18 > 100 µM | KM-20L2 > 100 µM | LXFL 529 > 100 µM | SNB-78 > 100 µM
